The target of the assay is T1, human serotonin transporter (hSERT) (Homo sapiens, UniProt P31645).
T1 construct: expressed in transfected cells; membranes prepared
Nature of the assay: hSERT scintillation proximity assay, competition with [3H]-Citalopram. The assay is classed as binding. The settings on record: membranes of HEK-293 cells, Cheng-Prusoff. Here is the method: The screening assay of this example was used to determine the affinity of ligands at the hSERT transporter by competition with [^3H]-Citalopram.
Scintillation Proximity Assay (SPA) works by bringing radioligand within close proximity to the bead's scintillant to stimulate light emission. In this assay, the receptor-containing membranes were pre-coupled to the SPA beads and the binding of the appropriate radioligand to the transporter was measured. The light emission was proportional to the amount of bound radioligand. Unbound radioligand produced no signal as a result of distant proximity to scintillant (lack of energy transfer). […]
Cell membranes were prepared using a membrane preparation buffer of 50 mM TRIS (pH 7.4). […] After a second centrifugation, the pellet was re-homogenized and brought to a final volume determined during the assay. […]
The % inhibition was calculated for each compound tested [(Compound counts per minute (CPM) at maximum concentration-Non-Specific CPM)/Total CPM*100]. […]
[formula] where max=total binding, min=non specific binding, x=concentration (M) of the tested compound and n=Hill slope. The inhibition dissociation constant (Ki) of each compound was determined according to the method of Cheng-Prusoff and then converted into negative logarithm (pKi) of the Ki.

From patent publication US7754721B2, “Arylpiperazine derivatives and uses thereof” (Roche Palo Alto LLC, priority 2006, dated 2010) come the findings set out here.

T1 sequence (P31645 whole entry): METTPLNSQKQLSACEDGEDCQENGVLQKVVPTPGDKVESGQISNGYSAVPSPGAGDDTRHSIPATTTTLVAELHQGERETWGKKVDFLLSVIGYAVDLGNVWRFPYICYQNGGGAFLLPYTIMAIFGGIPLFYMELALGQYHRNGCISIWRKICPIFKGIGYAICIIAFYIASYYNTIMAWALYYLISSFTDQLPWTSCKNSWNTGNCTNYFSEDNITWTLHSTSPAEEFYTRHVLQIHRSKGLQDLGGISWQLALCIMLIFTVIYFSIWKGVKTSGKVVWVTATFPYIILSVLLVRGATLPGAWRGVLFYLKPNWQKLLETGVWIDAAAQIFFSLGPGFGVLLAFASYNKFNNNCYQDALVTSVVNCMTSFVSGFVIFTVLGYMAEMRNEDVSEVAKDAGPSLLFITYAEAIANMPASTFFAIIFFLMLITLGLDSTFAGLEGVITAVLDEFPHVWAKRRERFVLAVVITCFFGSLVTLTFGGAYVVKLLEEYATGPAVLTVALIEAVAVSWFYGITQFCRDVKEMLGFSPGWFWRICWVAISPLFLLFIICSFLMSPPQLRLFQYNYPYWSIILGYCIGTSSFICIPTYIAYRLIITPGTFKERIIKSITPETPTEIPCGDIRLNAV

Consider `c1ccc(CC2CNCCN2c2ccc3cnccc3c2)cc1` (stereo not shown) [6-(2-Benzyl-piperazin-1-yl)-isoquinoline], for which the Ki was around 0.135 nM.
